# Structures can show the parent of a compound that is named as a salt.
row,Structure (SMILES),melting point
1,"COc1ccc2c(c1)[C@@H](Oc1ccc3c(c1)CCC(=O)N3)[C@H](N1CCC[C@@H](N)C1)C2 (as salt: HCl) [Compound 131, 6-({(1R,2R)-2-[(3R)-3-aminopiperidin-1-yl]-6-methoxy-2,3-dihydro-1H-inden-1-yl}oxy)-3,4-dihydroquinolin-2(1H)-one]",145.6 °C
2,"CS(=O)(=O)c1ccc2c(c1)[C@@H](Oc1ccc(C#N)cc1Cl)[C@H](N1CCC[C@@H](N)C1)C2 (as salt: HCl) [Compound 123, 4-{[(1R,2R)-2-[(3R)-3-aminopiperidin-1-yl]-6-(methylsulfonyl)-2,3-dihydro-1H-inden-1-yl]oxy}-3-chlorobenzonitrile]",162 °C
3,"CC(C)(N)C1CN([C@@H]2Cc3ccccc3[C@H]2Oc2ccc(C#N)cc2Cl)C1 (as salt: HCl) [Compound 125, 4-({(1R,2R)-2-[3-(2-aminopropan-2-yl)azetidin-1-yl]-2,3-dihydro-1H-inden-1-yl}oxy)-3-chlorobenzonitrile]",93 °C

# Results, then the molecule that gave them:
row,melting point,Structure (SMILES)
1,180 °C,"N#Cc1ccc(O[C@@H]2c3ncccc3C[C@H]2N2CCC[C@@H](N)C2)c(Cl)c1 (as salt: HCl) [Compound 138, 4-({(6R,7S)-6-[(3R)-3-aminopiperidin-1-yl]-6,7-dihydro-5H-cyclopenta[b]pyridin-7-yl}oxy)-3-chlorobenzonitrile]"
2,172 °C,"N#Cc1ccc(O[C@@H]2c3cccnc3C[C@H]2N2CCC[C@@H](N)C2)c(Cl)c1 (as salt: HCl) [Compound 137, 4-({(5R,6R)-6-[(3R)-3-aminopiperidin-1-yl]-6,7-dihydro-5H-cyclopenta[b]pyridin-5-yl}oxy)-3-chlorobenzonitrile]"
3,183.7 °C,"N[C@@H]1CCCN([C@@H]2Cc3ccccc3[C@H]2Oc2cc3c(cc2Cl)NC(=O)CC3)C1 (as salt: HCl) [Compound 132, 6-({(1R,2R)-2-[(3R)-3-aminopiperidin-1-yl]-2,3-dihydro-1H-inden-1-yl}oxy)-7-chloro-3,4-dihydroquinolin-2(1H)-one]"

# Source: patent publication US20130131034A1, “DERIVATIVES OF AMINOINDANES, THEIR PREPARATION AND THEIR APPLICATION IN THERAPEUTICS” (SANOFI, priority 2010, published 2013)
